# pIC50: −log10 of the molar value. Like-named read-outs stand apart in the source and are kept apart here. Marks after values point to notes of the source that are not given here.
# Tests used:
# [1] = system: CMT27 breast carcinoma cells; experiment: Alamar Blue cell proliferation assay, CMT27; type: cell-based, canine; conditions: Canis lupus familiaris, Breast carcinoma cell, 72 h, read-out: Combination IC50 (chemotherapeutic agent with fixed masitinib)
# [2] = system: DU145 prostate cancer cells; experiment: WST-1 proliferation/survival assay, DU145; type: cell-based; conditions: Homo sapiens, DU-145, read-out: Gemcitabine IC50
# Description: (§1) Gemcitabine (Gemzar, Lilly France) was obtained as a powder and dissolved in sterile 0.9% NaCl solution and stored as aliquots at −80° C. Fresh dilutions were prepared fcr each experiment. Cell lines: Colon and prostate cancer cell lines (Dr. Juan Iovanna, INSERM U624, Marseille, France), breast and ovarian cancer cell lines (Dr. Patrice Dubreuil, UMR 599 INSERM, Marseille, France), and lung cancer cell lines (Pr. Christian Auclair, UMR 8113 CNRS) were cultured as monolayers in RPMI 1640 medium containing L-glutamine supplemented with 100 U/ml penicillin and 100 μg/ml streptomycin, and 10% v/v heat-inactivated fetal calf serum (AbCys Lot S02823S1800) under standard culture conditions (5% CO2, 95% air in humidified chamber at 37° C.). In proliferation assays, all cells were grown in medium containing 1% FCS.
# (§2) Treatment was started with the addition of the respective drug. […] After 72 hours WST-1 reagent was added and incubated with the cells for 4 hours before absorbance measurement at 450 nm in an EL800 Universal Microplate Reader (Bio-Tek Instruments Inc.). Media alone was used as a blank and proliferation in the absence of compounds served as positive control (DMSO control). The new IC50 was scored and the results are representative of 3-4 experiments.
# H1650 NSCLC cells = experiment: WST-1 proliferation/survival assay, H1650; type: cell-based; conditions: Homo sapiens, NCI-H1650, read-out: Gemcitabine IC50
# Description: as §1, §2
# [3] = system: Abrams osteosarcoma cells; experiment: Alamar Blue cell proliferation assay, Abrams; type: cell-based, canine; conditions: Canis lupus familiaris, 72 h, read-out: Combination IC50 (chemotherapeutic agent with fixed masitinib)
# [4] = system: CaCo-2 colorectal cancer cells; experiment: WST-1 proliferation/survival assay, CaCo-2; type: cell-based; conditions: Homo sapiens, read-out: Gemcitabine IC50
# Description: as §1, §2
# H1299 NSCLC cells = experiment: WST-1 proliferation/survival assay, H1299; type: cell-based; conditions: Homo sapiens, NCI-H1299, read-out: Gemcitabine IC50
# Description: as §1, §2
# BT20 breast cancer cells = experiment: WST-1 proliferation/survival assay, BT20; type: cell-based; conditions: Homo sapiens, BT-20, read-out: Gemcitabine IC50
# Description: as §1, §2
# [5] = system: Capan-2 pancreatic cancer cells; experiment: WST-1 proliferation assay, Capan-2; type: cell-based, human; conditions: Homo sapiens
# Description: (§3) Cancer cell lines: Pancreatic cancer cells lines (Mia Paca-2, Panc-1, BxPC-3 and Capan-2) were obtained from Dr. Juan Iovanna (Inserm, France). Cells were maintained in RPMI (BxPC-3, Capan-2) or DMEM (Mia Paca-2, Panc-1) medium containing glutamax-1 (Lonza), supplemented with 100 U/ml penicillin/100 μg/ml streptomycin, and 10% fetal calf serum (FCS) (AbCys, Lot S02823S1800). Expression of tyrosine kinases was determined by RT-PCR using Hot Star Taq (Qiagen GmbH, Hilden, Germany) in a 2720 Thermal Cycler (Applied Biosystems).
# (§4) Treatment was started with the addition of the respective drug. […] After 72 hours WST-1 reagent was added and incubated with the cells for 4 hours before absorbance measurement at 450 nm in an EL800 Universal Microplate Reader (Bio-Tek Instruments Inc.). Media alone was used as a blank and proliferation in the absence of compounds served as positive control. Results are representative of three/four experiments.
# [6] = system: CMT12 breast carcinoma cells; experiment: Alamar Blue cell proliferation assay, CMT12; type: cell-based, canine; conditions: Canis lupus familiaris, Breast carcinoma cell, 72 h, read-out: Combination IC50 (chemotherapeutic agent with fixed masitinib)
# [7] = system: Mia Paca-2 pancreatic cancer cells; experiment: WST-1 proliferation assay, Mia Paca-2; type: cell-based, human; conditions: Homo sapiens
# [8] = system: HRT118 colorectal cancer cells; experiment: WST-1 proliferation/survival assay, HRT118; type: cell-based; conditions: Homo sapiens, read-out: Gemcitabine IC50
# Description: as §1, §2
# [9] = system: OVCAR3 ovarian cancer cells; experiment: WST-1 proliferation/survival assay, OVCAR3; type: cell-based; conditions: Homo sapiens, OVCAR-3, read-out: Gemcitabine IC50
# Description: as §1, §2
# [10] = system: Panc-1 pancreatic cancer cells; experiment: WST-1 proliferation assay, Panc-1; type: cell-based, human; conditions: Homo sapiens
# Description: as §3, §4
# [11] = system: MDAMB 134 breast cancer cells; experiment: WST-1 proliferation/survival assay, MDAMB 134; type: cell-based; conditions: Homo sapiens, read-out: Gemcitabine IC50
# Description: as §1, §2
# [12] = system: BxPC-3 pancreatic cancer cells; experiment: WST-1 proliferation assay, BxPC-3; type: cell-based, human
# Description: as §3, §4
# A549 NSCLC cells = experiment: WST-1 proliferation/survival assay, A549; type: cell-based; conditions: Homo sapiens, read-out: Gemcitabine IC50
# Description: as §1, §2
# D17 osteosarcoma cells = experiment: Alamar Blue cell proliferation assay, D17; type: cell-based, canine; conditions: Canis lupus familiaris, 72 h, read-out: Combination IC50 (chemotherapeutic agent with fixed masitinib)
# C2 mastocytoma cells = experiment: Alamar Blue cell proliferation assay, C2; type: cell-based, canine; conditions: Canis lupus familiaris, 72 h, read-out: Combination IC50 (chemotherapeutic agent with fixed masitinib)
# [13] = system: LnCaP prostate cancer cells; experiment: WST-1 proliferation/survival assay, LnCaP; type: cell-based; conditions: Homo sapiens, read-out: Gemcitabine IC50
# Description: as §1, §2
# [14] = system: BT474 breast cancer cells; experiment: WST-1 proliferation/survival assay, BT474; type: cell-based; conditions: Homo sapiens, BT-474, read-out: Gemcitabine IC50
# Description: as §1, §2
# [15] = system: Mia Paca-2 pancreatic tumors; experiment: Nog-SCID mouse model of human pancreatic cancer; type: in vivo, Nog-SCID mice; conditions: day 56, 28 days of treatment; control 1023
# [16] = system: MDAMB 231 breast cancer cells; experiment: WST-1 proliferation/survival assay, MDAMB 231; type: cell-based; conditions: Homo sapiens, MDA-MB-231, read-out: Gemcitabine IC50
# Description: as §1, §2
smiles,measurement,setting,value
"Nc1ccn([C@@H]2O[C@H](CO)[C@@H](O)C2(F)F)c(=O)n1 [Gemcitabine, 4-amino-1-(2-deoxy-2,2-difluoro-β-D-erythro-pentofuranosyl)pyrimidin-2(1H)-on 2′,2′-difluoro-2′-deoxycytidine]",pIC50,[1],5.89
same,pIC50,[2],4.00
same,pIC50,H1650 NSCLC cells,5.30
same,pIC50,[3],6.00
same,pIC50,[4],< 4.00
same,pIC50,H1299 NSCLC cells,4.00
same,pIC50,BT20 breast cancer cells,4.30
same,pIC50,"[5]; Capan-2, 72 h, Capan-2, 72 hours, 1% FCS, read-out: IC50, single agent",4.70 to 5.70
same,pIC50,"[5]; Capan-2, read-out: IC50 of gemcitabine plus 5 μM masitinib, Capan-2, masitinib overnight before gemcitabine",5.70
same,pIC50,[6],4.97
same,pIC50,"[7]; MIA PaCa-2, read-out: IC50 of gemcitabine plus 5 μM masitinib",5.82
same,pIC50,"[7]; MIA PaCa-2, read-out: IC50 of gemcitabine plus 10 μM masitinib",7.60
same,pIC50,"[7]; Mia Paca-2, 72 hours, 1% FCS, read-out: IC50, single agent",< 5.00
same,pIC50,"[7]; Mia Paca-2, read-out: IC50, single agent (resistance)",< 2.60
same,pIC50,[8],< 4.00
same,pIC50,[9],4.30
same,pIC50,"[10]; PANC-1, read-out: IC50 of gemcitabine plus 5 μM masitinib",5.10
same,pIC50,"[10]; PANC-1, read-out: IC50 of gemcitabine plus 10 μM masitinib",6.00
same,pIC50,"[10]; Panc-1, 72 hours, 1% FCS, read-out: IC50, single agent",< 5.00
same,pIC50,"[10]; Panc-1, read-out: IC50, single agent (resistance)",< 2.60
same,pIC50,[11],4.00
same,pIC50,"[12]; BxPC-3, 72 hours, 1% FCS, read-out: IC50, single agent",4.70 to 5.70
same,pIC50,"[12]; Homo sapiens, BXPC-3, read-out: IC50 of gemcitabine plus 5 μM masitinib, BxPC-3, masitinib overnight before gemcitabine",5.00
same,pIC50,"[12]; Homo sapiens, BXPC-3, read-out: IC50 of gemcitabine plus 10 μM masitinib, BxPC-3, masitinib overnight before gemcitabine",5.00
same,pIC50,A549 NSCLC cells,4.00
same,pIC50,D17 osteosarcoma cells,5.89
same,pIC50,C2 mastocytoma cells,< 4.00
same,pIC50,[13],4.00 to 4.60
same,pIC50,[14],4.00
same,"Tumor Volume, Median",[15],662* mm^3
same,pIC50,[16],4.00

# Reference: US20150290235A1, “USE OF SMALL MOLECULE INHIBITORS/ACTIVATORS IN COMBINATION WITH (DEOXY)NUCLEOSIDE OR (DEOXY)NUCLEOTIDE ANALOGS FOR TREATMENT OF CANCER AND HEMATOLOGICAL MALIGNANCIES OR VIRAL INFECTIONS” (AB SCIENCE, priority 2012, published 2015)
